In article PMC7018972, “Novel and selective inactivators of Triosephosphate isomerase with anti-trematode activity” (Scientific Reports, 2020):

Biological target: Fasciola hepatica TIM (FhTIM) (Fasciola hepatica, UniProt S4UI50)
Assay: Inhibition of recombinant FhTIM, coupled enzyme assay
Type: biochemical
Conditions: Table 1S, screening of 340 compounds in FhTIM; table head prints no unit, µM per b8/b9; read-out: IC50
Protocol: Expression and purification of proteins: FhTIM, RabbitTIM and HsTIM were expressed in Escherichia coli and purified as described in the literature[31],[37]. […] Before use, extensive dialysis against 100 mM triethanolamine/10 mM EDTA (pH 7.4) was performed. […] Enzymatic activity was determined following the conversion of glyceraldehydes-3-phosphate into dihydroxyacetone phosphate in a coupled enzyme assay. The decrease in absorbance at 340 nm was followed in a multiplate reader VarioskanTM Flash Multimode Reader (Thermo ScientificTM, Waltham, MA, USA) at 38 °C. The reaction mixture (1 mL, pH 7.4) contained 100 mM triethanolamine, 10 mM EDTA, 0.2 mM NADH, 1 mM glyceraldehydes-3-phosphate and 0.9 units of α-glycerol phosphate dehydrogenase. The reaction was initiated by the addition of 5 ng/mL of the TIM of interest. For the inhibition studies, TIM was incubated at a concentration of 5 mg/mL in a buffer containing 100 mM triethanolamine, 10 mM EDTA, pH 7.4 and 10% of DMSO at 37 °C for 1 h. The mixture also contained the compounds, dissolved in DMSO, at the indicated concentrations. After 1 h, 10 µL were withdrawn and added to a final volume of 100 µL of the reaction mixture for the activity assay. The inhibition assay was performed in a 96-well microplate. […] The experiments were performed in triplicate in two independent experiments.

Fasciola hepatica TIM (FhTIM), sequence (S4UI50 entry or part of it): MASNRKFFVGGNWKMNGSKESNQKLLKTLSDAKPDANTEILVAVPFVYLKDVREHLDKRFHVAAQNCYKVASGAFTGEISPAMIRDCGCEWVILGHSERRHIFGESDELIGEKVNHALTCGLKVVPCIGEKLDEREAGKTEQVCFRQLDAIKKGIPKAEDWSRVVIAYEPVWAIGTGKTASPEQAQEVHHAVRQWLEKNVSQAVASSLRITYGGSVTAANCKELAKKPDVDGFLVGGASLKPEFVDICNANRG

`C=CCn1c(-c2ccc([N+](=O)[O-])cc2)csc1=NN=C/C=C/c1cccs1` [Compound 907] and `C=CCn1c(-c2ccc(OC)cc2)csc1=NN=CC=Cc1cccs1` [Compound 1133] cannot be ordered by IC50: over 100 µM for the first, over 100 µM for the second.

`C=CCn1c(-c2ccc(Cl)cc2)csc1=NN=Cc1ccc2no[n+]([O-])c2c1` [Compound 304] and `C=CCn1c(-c2ccc(Cl)cc2)csc1=NN=Cc1ccc(Cl)cc1` [Compound 265] cannot be ordered by IC50: over 100 µM for the first, over 100 µM for the second.

`O=C1C(=Cc2ccccc2)CCC1=Cc1ccccc1` [Compound 1247] and `O=C1C(=CC=Cc2ccccc2)CCC1=CC=Cc1ccccc1` [Compound 1246] fall in the same range of IC50: 50 to 100 µM for the first, 50 to 100 µM for the second.

First: C=CCn1c(C)csc1=NN=CC=Cc1ccccc1 [Compound 1135]
Second: C=CCn1c(-c2ccccc2)csc1=NN=CC=Cc1cccs1 [Compound 875]
The IC50 of the first is higher: over 100 µM for the first, 50 to 100 µM for the second.

Compared with `CC(=O)Nc1ccc(C=C2CN(C)CC(=Cc3ccc(NC(C)=O)cc3)C2=O)cc1` [Compound 1281], `CN1C/C(=C\C=C\c2ccccc2)C(=O)/C(=C/C=C/c2ccccc2)C1` [Compound 1284] is lower in IC50: over 100 µM for the first, 50 to 100 µM for the second.

First: C=CCn1c(C)csc1=NN=Cc1ccc(S(=O)(=O)O)o1 [Compound 1130]
Second: C=CCn1c(C)csc1=NN=Cc1ccc([N+](=O)[O-])s1 [Compound 143]
The IC50 of the first is higher: over 100 µM for the first, 50 to 100 µM for the second.

`NC1=NS(=O)(=O)N=C(N)C1=Cc1ccc([N+](=O)[O-])o1` [Compound 117] and `Cc1nnc[n+]([O-])c1C=Cc1ccc([N+](=O)[O-])o1` [Compound 359] cannot be ordered by IC50: over 100 µM for the first, over 100 µM for the second.

`C=CCn1c(C(=O)NN2CCN(CC=Cc3ccccc3)CC2)csc1=NN=CC=Cc1ccco1` [Compound 1100] and `C=CCn1c(C(=O)CNN2CCN(C/C=C/c3ccccc3)CC2)csc1=NN=C/C=C/c1ccco1` [Compound 1115] cannot be ordered by IC50: over 100 µM for the first, over 100 µM for the second.

`O=[N+]([O-])c1ccc2c(c1)c(O)nn2Cc1ccccc1CN1CCCCC1` [Compound 456] and `O=[N+]([O-])c1ccc2c(c1)c(O)nn2CCOCCN1CCCCC1` [Compound 459] cannot be ordered by IC50: over 100 µM for the first, over 100 µM for the second.

Compared with `Clc1ccc(-c2csc(NN=CC=Cc3ccco3)n2)cc1` [Compound 901], `C=CCn1c(-c2ccc(Br)cc2)csc1=NN=CC=Cc1ccco1` [Compound 306] is lower in IC50: over 100 µM for the first, 50 to 100 µM for the second. The second is the more potent here.

`C=CCn1c(-c2ccc(Cl)cc2)csc1=NN=CC=Cc1ccc(C)o1` [Compound 872] and `C=CCn1c(-c2ccc([N+](=O)[O-])cc2)csc1=NN=Cc1ccc([N+](=O)[O-])s1` [Compound 146] cannot be ordered by IC50: over 100 µM for the first, over 100 µM for the second.

`Cc1ccc(C=CC=NN2CCN(CC=Cc3ccccc3)CC2)o1` [Compound 903] and `C=CCn1c(C(=O)CN2CCN(CC=Cc3ccccc3)CC2)csc1=NN=CC=Cc1ccco1` [Compound 1112] cannot be ordered by IC50: over 100 µM for the first, over 100 µM for the second.

First: CC(/C=N/N1CCSCC1)=C\c1ccco1 [Compound 878]
Second: N#CC(C#N)=CC=Cc1ccco1 [Compound 579]
The IC50 of the first is lower: 50 to 100 µM for the first, over 100 µM for the second.

`NN1CCSCC1` [Compound 616] and `O=[N+]([O-])c1ccc2c(c1)c(O)nn2CCOCCN1CCSCC1` [Compound 642] cannot be ordered by IC50: over 100 µM for the first, over 100 µM for the second.

`O=C1CC(=O)N(Cc2ccccc2)S(=O)(=O)N1Cc1ccccc1` [Compound 358] and `O=C1CC(=O)N(CCc2ccccc2)S(=O)(=O)N1CCc1ccccc1` [Compound 127] cannot be ordered by IC50: over 100 µM for the first, over 100 µM for the second.

`O=S(=O)(O)c1ccc(C=NN=c2scc(-c3csc(=NN=Cc4ccc(S(=O)(=O)O)o4)n3-c3ccccc3)n2-c2ccccc2)o1` [Compound 781] and `C=CCn1c(-c2csc(=NN=Cc3ccc(S(=O)(=O)O)o3)n2-c2ccccc2)csc1=NN=CC=Cc1ccco1` [Compound 785] cannot be ordered by IC50: over 100 µM for the first, over 100 µM for the second.

`NNC(=O)c1ccc2c(c1)OCO2` [Compound 711] and `C=CCNC(=S)NN=Cc1ccc2c(c1)OCO2` [Compound 280] cannot be ordered by IC50: over 100 µM for the first, over 100 µM for the second.

`NC(=S)NN=Cc1ccc([N+](=O)[O-])s1` [Compound 283] and `C=CCNC(=S)NN=Cc1ccc([N+](=O)[O-])s1` [Compound 136] cannot be ordered by IC50: over 100 µM for the first, over 100 µM for the second.

`O=[N+]([O-])c1ccc(C=NN=c2scc(-c3ccccc3)n2-c2ccccc2)s1` [Compound 268] and `C(=CC=NN=c1scc(-c2ccccc2)n1-c1ccccc1)C=Cc1ccco1` [Compound 814] cannot be ordered by IC50: over 100 µM for the first, over 100 µM for the second.

`COc1nn(CCOCCN2CCN(CC=Cc3ccccc3)CC2)c2ccc([N+](=O)[O-])cc12` [Compound 198] and `O=[N+]([O-])c1ccc2c(c1)c(OCc1ccccc1)nn2CCOCCBr` [Compound 516] cannot be ordered by IC50: over 100 µM for the first, over 100 µM for the second.

`COc1nn(CCOCCN(C)C)c2ccc([N+](=O)[O-])cc12` [Compound 474] and `CN(C/C=C/c1ccccc1)CCOCCn1nc(OCc2ccccc2)c2cc([N+](=O)[O-])ccc21` [Compound 508] cannot be ordered by IC50: over 100 µM for the first, over 100 µM for the second.

`O=[N+]([O-])c1ccc(C=Cc2ccc3nonc3c2)cc1` [Compound 584] and `Cc1nnc[n+]([O-])c1C=Cc1ccc2c(c1)OCO2` [Compound 216] cannot be ordered by IC50: over 100 µM for the first, over 100 µM for the second.

First: C=CCN1C(=O)CSC1=NN=Cc1cccs1 [Compound 273]
Second: C=CCn1c(C)csc1=NN=Cc1cccs1 [Compound 274]
The IC50 of the first is higher: over 100 µM for the first, 50 to 100 µM for the second. The second is the more potent here.

`[O-][n+]1onc2ncc(Cl)cc21` [Compound 671] and `O=Cc1ccc2no[n+]([O-])c2c1` [Compound 38] cannot be ordered by IC50: over 100 µM for the first, over 100 µM for the second.

First: O=S(=O)(NC1CCCCC1)NC1CCCCC1 [Compound 118]
Second: O=[N+]([O-])c1ccc2c(c1)c(O)nn2CCCCCN1CCCCC1 [Compound 481]
The IC50 of the first is higher: over 100 µM for the first, 50 to 100 µM for the second. The second is the more potent here.

Compared with `CC(=NNC(N)=O)c1cccc(C(C)=NNC(N)=O)n1` [Compound 701], `CCOC(=O)c1nc2ccc([N+](=O)[O-])cc2n1OC(=O)OCC(C)C` [Compound 545] is lower in IC50: over 100 µM for the first, 100 µM for the second. The second is the more potent here.

`CCCCNC(=O)NN=Cc1no[n+]([O-])c1C` [Compound 175] and `COC(=O)NN=Cc1no[n+]([O-])c1C` [Compound 174] cannot be ordered by IC50: over 100 µM for the first, over 100 µM for the second.

`Nc1ccc2c(c1)[n+]([O-])c1cc(Cl)ccc1[n+]2[O-]` [Compound 184] and `Cc1c(C=Cc2ccc(N(C)C)cc2)[n+]([O-])cn[n+]1[O-]` [Compound 219] cannot be ordered by IC50: over 100 µM for the first, over 100 µM for the second.

`CC(C)OC(CC[P+](c1ccccc1)(c1ccccc1)c1ccccc1)OC(C)C` [Compound 497] and `[O-][n+]1onc(-c2ccccc2)c1CNc1cccc2ccccc12` [Compound 169] cannot be ordered by IC50: over 100 µM for the first, over 100 µM for the second.

`O=C(C=CC=Cc1cccs1)C=CC=Cc1cccs1` [Compound 798] and `O=C(C=Cc1cccs1)C=Cc1cccs1` [Compound 796] cannot be ordered by IC50: over 100 µM for the first, over 100 µM for the second.

`S=C(NCc1ccccc1)NCc1ccccc1` [Compound 1085] and `O=[N+]([O-])c1ccc(C=CC=NNC(=S)Nc2ccccc2)o1` [Compound 54] cannot be ordered by IC50: over 100 µM for the first, over 100 µM for the second.

Compared with `CNc1ccc(C)cc1[N+](=O)[O-]` [Compound 651], `O=[N+]([O-])c1cc(CI)ccc1F` [Compound 769] is lower in IC50: over 100 µM for the first, 100 µM for the second.

`N#Cc1c(-c2ccccc2)no[n+]1[O-]` [Compound 650] and `Cc1c(C(=O)NN=Cc2ccccc2)no[n+]1[O-]` [Compound 824] cannot be ordered by IC50: over 100 µM for the first, over 100 µM for the second.

`O=C1C(=CC=Cc2cccs2)CCC1=CC=Cc1cccs1` [Compound 1018] and `O=C1C(=CC=Cc2cccs2)CCCC1=CC=Cc1cccs1` [Compound 1245] cannot be ordered by IC50: over 100 µM for the first, over 100 µM for the second.

First: Cc1c(CNc2ccc3ccccc3c2)no[n+]1[O-] [Compound 173]
Second: O=C1CCCC2=C1C(c1cccc(Br)c1)c1ccc3ccccc3c1N2 (centres unmarked) [Compound 699]
The IC50 of the first is lower: 50 to 100 µM for the first, over 100 µM for the second. The first is the more potent here.

First: CN1CC(=CC=Cc2ccco2)C(=O)C(=CC=Cc2ccco2)C1 [Compound 1282]
Second: O=C1/C(=C/C=C/c2ccco2)CCC/C1=C\C=C\c1ccco1 [Compound 1019]
The IC50 of the first is higher: over 100 µM for the first, 50 to 100 µM for the second. The second is the more potent here.

`CCOC(=O)C=Cc1ccc([N+](=O)[O-])o1` [Compound 66] and `Cc1c(C=Cc2ccc([N+](=O)[O-])s2)ncn[n+]1[O-]` [Compound 214] cannot be ordered by IC50: over 100 µM for the first, over 100 µM for the second.

`C=CCNC(=S)NN=Cc1ccc(SC)cc1` [Compound 281] and `C=CCNC(=S)NN=Cc1cncc(Br)c1` [Compound 307] cannot be ordered by IC50: over 100 µM for the first, over 100 µM for the second.

Going from `COc1cc(/C=C/C(=O)CC(=O)/C=C/c2cc(OC)c3oc(=O)cc(C)c3c2)ccc1O` [Compound 915] to `O=C(/C=C/c1ccco1)c1ccccc1O` [Compound 881], the IC50 falls from over 100 µM to 100 µM. The second is the more potent here.

`COc1ccc(CNCC(=O)O)cc1` [Compound 659] and `NC(=NO)c1ccc(Br)cc1` [Compound 1105] cannot be ordered by IC50: over 100 µM for the first, over 100 µM for the second.

`C=CCn1c(-c2csc(=NN=CC=Cc3cccs3)n2CC=C)csc1=NN=CC=Cc1cccs1` [Compound 1118] and `C=CCn1c(-c2csc(=NN=CC=Cc3ccccc3)n2-c2ccccc2)csc1=NN=CC=Cc1ccco1` [Compound 791] cannot be ordered by IC50: over 100 µM for the first, over 100 µM for the second.

`CC1(C)[N+]([O-])=c2ccc(C3OCCO3)cc2=[N+]1[O-]` [Compound 105] and `CN(C)c1ccncc1` [Compound 1101] cannot be ordered by IC50: over 100 µM for the first, over 100 µM for the second.

In the case of `O=C(C=CC=Cc1ccco1)C=CC=Cc1ccco1` [Compound 793], the IC50 is reported as over 100 µM.

Same assay, conditions: recombinant FhTIM, 1 h incubation with compound at 37 °C; read-out: IC50

`CN(C)CCCNS(=O)(=O)NCCCN(C)C` [Compound 121] gave an IC50 of 50 ± 9 µM.
